One experiment addresses T1, ABL1 (Homo sapiens, UniProt P00519).
T1 construct: purchased Promega
The experiment can be described thus: Tyrosine kinase assay (Kinase Selectivity TK-2, ADP-Glo). The experiment is classed as biochemical. As to conditions: read-out: Inhibitory Effect of the Tyrosine Kinase Activity, ABL1. The protocol: (§1) Assays using the Kinase Selectivity TK-2 profiling systems and ADP-Glo Kinase Assay (both from Promega) were performed to determine the inhibition of the non-receptor tyrosine kinases. The protocol was previously designed and described by our group in reports. The experiments were performed at least four times. The data are expressed as the percentage of the inhibition activity of tyrosine kinase after treatment with the tested derivatives.
In general terms: ADP-Glo first removes unused ATP, then detects ADP through luciferase.

The next experiment concerns the target T2, BTK (Homo sapiens, UniProt Q06187).
T2 construct: purchased Promega
The experiment is described as above. The experiment is classed as biochemical. As to conditions: read-out: Inhibitory Effect of the Tyrosine Kinase Activity, BTK. Here is the method: as §1

The target in another experiment is T3, Lck (Homo sapiens, UniProt P06239).
T3 construct: purchased Promega
The description is as above. The experiment is classed as biochemical. The following applies: read-out: Inhibitory Effect of the Tyrosine Kinase Activity, Lck. The protocol:
as §1

Another experiment addresses T4, Src (Homo sapiens, UniProt P12931).
T4 construct: purchased Promega
The description is as above. The following applies: read-out: Inhibitory Effect of the Tyrosine Kinase Activity, Src. The experiment is classed as biochemical. The protocol:
as §1

The subject of experiment [1] is K562 cells. As to the kind of experiment: Cell cycle assay (Muse Cell-Cycle Kit), K562. As to conditions: 24 h. The experiment is classed as cell-based, human. Here is the method:
(§2) The K562, U-251 and NHDF cells were seeded in 3 cm Petri dishes (Nunc) at a density of 250,000 cells per well and incubated under standard conditions at 37 °C for 24 h. […] After a 24 h treatment, the assays were performed using a Muse Cell-Cycle Kit (Millipore, Burlington, MA, USA) according to the supplier’s instructions. Briefly, the cells were collected, washed with cold PBS and centrifuged at 300 g for 5 min. Afterwards, the cells were fixed in ice cold 70% ethanol and stored at −20 °C overnight. The next day, the cells were washed with cold PBS, centrifuged and resuspended in 200 μL of the Muse™ Cell Cycle Reagent. The samples were incubated for 30 min at room temperature in the dark. After staining, the cellular subpopulation values in the individual cell cycle phases were estimated using a cell cycle analysis using a Muse Cell Analyzer (Millipore). The experiments were performed at least four times.

The subject of experiment [2] is U-251 cells. As to the kind of experiment: Cell cycle assay (Muse Cell-Cycle Kit), U-251. The experiment is classed as cell-based, human. The following applies: 24 h. Here is the method:
as §2

The test system of experiment [3] is K562 cells. As to the kind of experiment: Annexin V binding (apoptosis) assay, K562. The experiment is classed as cell-based, human. As to conditions: K562, 5 µM, 48 h; 5.56% in the control cells. The protocol:
The K562, U-251 and NHDF cells were seeded in 3 cm Petri dishes (Nunc) at a density of 250,000 cells per well and incubated at 37 °C for 24 h. Then, the medium was removed, and freshly prepared solutions of the tested compounds, BS1 and BS4 (two to three times the IC50 value), were added. After a 48 h incubation, the assays were performed using a FITC Annexin V Apoptosis Detection KIT with 7-AAD (Bio-Legend) according to the manufacturer’s instructions. Briefly, the cells were collected, washed twice with cold PBS and centrifuged at 300 g for 5 min. Next, the cells were resuspended in a 100 µL Annexin V Binding Buffer and incubated for 15 min at room temperature in the dark with 5 µL of FITC Annexin V and 5 µL 7-AAD Viability Staining Solution. After immunostaining, the number of events for live, early and late apoptotic cells were determined using a Muse Cell Analyzer. The experiments were performed at least four times.

Experiment [4] deals with K562 cells. As to the kind of experiment: qRT-PCR mRNA expression, K562. The experiment is classed as cell-based, human. The following applies: 24 h. Here is the method:
(§3) The total RNA was isolated from the K562 and U-251 cells using the TRIzol Reagent procedure (Ambion, Austin, TX, USA). Reverse transcription was performed with 5 μg of total RNA using a GoScript™ Reverse Transcriptase kit (Promega) and Oligo(dT)23 Primers (Sigma). Real-time PCR was performed using a CTX96 Touch™ Real-Time PCR Detection System (Biorad, Hercules, CA, USA) in a 20 μL reaction volume. The reaction consisted of SsoAdvanced™ Universal SYBR® Green Supermix (Biorad), a specific primer pair mix (0.5 μM each) and 1 μL of cDNA. The reaction was performed under the following conditions: initial denaturation at 95 °C for 30 s; followed by 40 denaturation cycles at 95 °C, 15 s; annealing (primer-specific temperature for 30 s) and extension at 72 °C for 60 s. The obtained results were analyzed based on a comparison of the expression of the target genes to the reference gene, GAPDH, using the 2^−ΔΔCT method. The experiments were performed at least four times.
(In general: Real-time PCR tracks product formation cycle by cycle.)

In experiment [5] the test system is U-251 cells. The experiment can be described thus: qRT-PCR mRNA expression, U-251. The experiment is classed as cell-based, human. The following applies: for Increase in the GADD45α mRNA expression / p62 mRNA expression: 24 h; for LC3 mRNA expression: U-251, 24 h. Here is the method:
as §3

The text below walks through data of publication PMC8068801, “Novel Benzenesulfonate Scaffolds with a High Anticancer Activity and G2/M Cell Cycle Arrest” (Cancers, 2021).

T2 sequence (Q06187 whole entry): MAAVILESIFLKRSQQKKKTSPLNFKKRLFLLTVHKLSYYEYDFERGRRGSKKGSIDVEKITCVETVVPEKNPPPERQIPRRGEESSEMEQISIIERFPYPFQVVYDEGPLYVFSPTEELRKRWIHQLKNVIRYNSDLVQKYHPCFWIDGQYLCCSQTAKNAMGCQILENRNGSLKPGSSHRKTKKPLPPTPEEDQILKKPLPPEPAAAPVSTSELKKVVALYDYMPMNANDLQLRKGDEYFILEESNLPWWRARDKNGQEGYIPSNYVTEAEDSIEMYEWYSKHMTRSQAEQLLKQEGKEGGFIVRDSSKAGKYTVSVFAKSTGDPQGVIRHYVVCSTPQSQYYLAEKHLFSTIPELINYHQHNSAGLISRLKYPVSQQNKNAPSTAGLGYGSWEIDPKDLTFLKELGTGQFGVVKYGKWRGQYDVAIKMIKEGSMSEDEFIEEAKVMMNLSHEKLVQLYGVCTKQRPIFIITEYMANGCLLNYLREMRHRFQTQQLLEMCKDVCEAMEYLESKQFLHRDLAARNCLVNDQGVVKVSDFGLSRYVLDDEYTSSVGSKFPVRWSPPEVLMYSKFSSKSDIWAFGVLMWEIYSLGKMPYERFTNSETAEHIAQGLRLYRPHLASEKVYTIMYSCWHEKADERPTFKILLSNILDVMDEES
T3 sequence (P06239 whole entry): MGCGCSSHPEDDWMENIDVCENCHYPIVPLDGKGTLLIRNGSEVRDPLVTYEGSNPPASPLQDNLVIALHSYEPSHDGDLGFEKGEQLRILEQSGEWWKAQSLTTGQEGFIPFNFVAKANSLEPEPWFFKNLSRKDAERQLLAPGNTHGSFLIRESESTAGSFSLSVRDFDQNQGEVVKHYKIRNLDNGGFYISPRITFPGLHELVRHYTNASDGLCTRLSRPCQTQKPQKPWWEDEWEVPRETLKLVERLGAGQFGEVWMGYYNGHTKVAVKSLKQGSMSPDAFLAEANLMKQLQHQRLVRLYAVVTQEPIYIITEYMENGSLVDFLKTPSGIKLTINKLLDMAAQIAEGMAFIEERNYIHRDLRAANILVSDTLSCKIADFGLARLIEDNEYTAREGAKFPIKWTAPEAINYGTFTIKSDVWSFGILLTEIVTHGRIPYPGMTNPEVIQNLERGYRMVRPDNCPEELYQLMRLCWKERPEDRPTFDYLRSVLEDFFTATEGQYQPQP
T4 sequence (P12931 whole entry): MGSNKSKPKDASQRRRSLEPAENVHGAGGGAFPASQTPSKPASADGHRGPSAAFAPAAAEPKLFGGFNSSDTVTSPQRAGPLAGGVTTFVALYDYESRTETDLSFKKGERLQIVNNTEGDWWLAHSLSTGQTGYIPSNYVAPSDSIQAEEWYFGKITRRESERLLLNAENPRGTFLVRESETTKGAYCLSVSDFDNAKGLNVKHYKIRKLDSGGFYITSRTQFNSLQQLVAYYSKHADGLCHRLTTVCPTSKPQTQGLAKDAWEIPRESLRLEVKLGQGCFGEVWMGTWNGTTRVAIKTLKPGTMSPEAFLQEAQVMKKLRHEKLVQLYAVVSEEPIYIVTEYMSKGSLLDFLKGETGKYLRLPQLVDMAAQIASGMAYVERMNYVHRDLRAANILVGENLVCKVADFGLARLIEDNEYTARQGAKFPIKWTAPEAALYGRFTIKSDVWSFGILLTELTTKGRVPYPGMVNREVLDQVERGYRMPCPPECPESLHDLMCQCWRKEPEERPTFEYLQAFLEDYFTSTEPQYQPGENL
T1 sequence (P00519 whole entry): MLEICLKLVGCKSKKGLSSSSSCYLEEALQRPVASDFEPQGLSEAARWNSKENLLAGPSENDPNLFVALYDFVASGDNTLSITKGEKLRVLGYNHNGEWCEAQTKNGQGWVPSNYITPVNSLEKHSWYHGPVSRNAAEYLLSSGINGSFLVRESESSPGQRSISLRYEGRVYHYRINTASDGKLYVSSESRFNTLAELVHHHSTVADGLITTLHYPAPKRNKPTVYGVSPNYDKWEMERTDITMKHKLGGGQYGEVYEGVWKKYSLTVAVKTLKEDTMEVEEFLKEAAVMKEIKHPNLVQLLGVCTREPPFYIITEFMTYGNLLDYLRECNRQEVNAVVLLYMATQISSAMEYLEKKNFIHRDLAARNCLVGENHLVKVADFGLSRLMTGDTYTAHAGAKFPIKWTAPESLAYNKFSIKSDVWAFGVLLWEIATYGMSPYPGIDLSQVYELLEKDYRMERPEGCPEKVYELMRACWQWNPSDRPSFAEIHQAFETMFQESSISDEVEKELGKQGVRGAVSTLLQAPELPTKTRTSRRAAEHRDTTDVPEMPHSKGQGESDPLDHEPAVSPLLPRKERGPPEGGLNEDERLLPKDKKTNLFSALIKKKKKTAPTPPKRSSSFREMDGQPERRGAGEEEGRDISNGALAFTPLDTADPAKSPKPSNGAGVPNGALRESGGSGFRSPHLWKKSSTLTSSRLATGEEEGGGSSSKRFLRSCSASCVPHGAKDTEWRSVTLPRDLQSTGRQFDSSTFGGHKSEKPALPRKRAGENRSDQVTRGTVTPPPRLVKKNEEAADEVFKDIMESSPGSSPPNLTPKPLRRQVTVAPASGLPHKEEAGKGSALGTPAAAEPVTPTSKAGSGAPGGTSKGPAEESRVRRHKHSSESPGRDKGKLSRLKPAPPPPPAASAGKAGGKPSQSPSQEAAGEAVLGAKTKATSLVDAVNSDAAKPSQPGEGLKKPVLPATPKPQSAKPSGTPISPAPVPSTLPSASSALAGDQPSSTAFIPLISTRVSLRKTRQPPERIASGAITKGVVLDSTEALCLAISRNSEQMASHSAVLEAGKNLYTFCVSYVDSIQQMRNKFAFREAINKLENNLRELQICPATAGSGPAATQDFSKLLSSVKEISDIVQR

On to `COc1ccccc1/C=C/c1nc(OS(=O)(=O)c2ccc3c(c2)OCO3)c2ccccc2n1` [BS1, 2-((E)-2-(2-methoxyphenyl)ethenyl)quinazolin-4-yl 1,3-benzodioxole-5-sulfonate], for which the inhibition at 0.5 µM at ABL1 is 28.4%; on BTK, 18.8%; on Lck, 25.8%; at Src it was 0.19%. Further, the “Cells in G2/M phase, mean ± SD” value is 43.46% in the experiment on K562 cells [1] (K562, 0.35 µM); 37.20% in the experiment with K562 cells [1] (K562, 0.5 μM); 85.40% in the experiment on U-251 cells [2] (U-251, 4 µM); 90.68% in the experiment on U-251 cells [2] (U-251, 6 μM). For the same molecule, the “Cells in G0/G1 phase, mean ± SD” value in the experiment with U-251 cells [2] (U-251, 6 μM) was determined as 1.52%. Further, the “Cells in S phase, mean ± SD” value in the experiment with U-251 cells [2] (U-251, 6 μM) came out at 1.52%. Besides, in the experiment with K562 cells [3], the “Total (early and late) apoptotic cells” value was found to be 31.99%. The “Decrease in the IDH1 mRNA level” value with K562 cells [4] (K562, 0.5 μM) is around 2.4 fold. The “p62 mRNA level” value with K562 cells [4] (K562, 0.5 μM) is “about three-fold”. Further, the “Increase in the GADD45α mRNA expression” value in the experiment with U-251 cells [5] (U-251, 4 µM) is around 1.5 fold. In addition, the “p62 mRNA expression” value in the experiment on U-251 cells [5] (U-251, 4 µM) is reported as “almost four-fold increase”. Besides, the “LC3 mRNA expression” value with U-251 cells [5] is on record as “more than two-fold increase”.

Take `COc1ccccc1/C=C/c1nc(OS(=O)(=O)c2cc3c(cc2Br)OCO3)c2ccccc2n1` [BS2, 2-((E)-2-(2-methoxyphenyl)ethenyl)quinazolin-4-yl 6-bromo-1,3-benzodioxole-5-sulfonate]: the inhibition at 0.5 µM on ABL1 is 0%; on BTK, 40.2%; on Lck, 9.93%; on Src, 26.3%.

On to `COc1ccccc1/C=C/c1nc(OS(=O)(=O)c2ccc(C)cc2)c2ccccc2n1` [BS4, 2-((E)-2-(2-methoxyphenyl)ethenyl)quinazolin-4-yl 4-methylbenzenesulfonate], for which the inhibition at 0.5 µM at ABL1 is 0%; on BTK, 26.9%; on Lck, 19.5%; at Src, 0%. Moreover, in the experiment on K562 cells [1] (K562, 0.5 μM), the “Cells in G0/G1 phase, mean ± SD” value was 21.80%. In the experiment with K562 cells [1] (K562, 0.5 μM), the “Cells in G2/M phase, mean ± SD” value is recorded as 58.73%. The “Cells in S phase, mean ± SD” value in the experiment on K562 cells [1] (K562, 0.5 μM) stood at 18.32%. In addition, the “Increase in the fraction of cells in the G2/M phase compared to the control” value with U-251 cells [2] (U-251, 4 µM) is given as around 23.1%; in the experiment with U-251 cells [2] (U-251, 6 μM), “about 40.92%”. Further, in the experiment on K562 cells [3], the “Total (early and late) apoptotic cells” value is 26.51%. Also, the LC3 transcript levels result in the experiment on K562 cells [4] (K562, 0.35 µM) was “decreased”. In addition, the “Decrease in the IDH1 mRNA level” value in the experiment on K562 cells [4] (K562, 0.5 µM and 0.35 µM) is recorded as “about a two-fold decrease”. Further, the “GADD45α mRNA expression” value with K562 cells [4] (K562, 0.5 μM) is listed as “almost two-fold decrease”. Also, the “Increase in the GADD45α mRNA expression” value in the experiment on U-251 cells [5] (U-251, 4 µM) was around 1.5 fold. Further, the “p62 mRNA expression” value in the experiment on U-251 cells [5] (U-251, 6 μM) is “almost four-fold increase”. Further, the “LC3 mRNA expression” value in the experiment with U-251 cells [5] is “more than two-fold increase”.
